Patent publication US11306084B2, “Integrin antagonists” (Saint Louis University, priority 2016, dated 2022)
Structures can show the parent of a compound that is named as a salt.

Columns and labels:
Type in all cases: binding
[1] = molecular target: T1, Recombinant human integrin ανβ1 (Homo sapiens, UniProt P05556+P06756); test: Solid Phase Receptor Assay (SPRA) for ανβ1 function; details: for IC50: plate-bound human fibronectin, read-out: αvβ1 SPRA IC50
T1 construct: purchased R&D Systems 6579-AV
T1 sequence (P06756 31-992 limits assumed): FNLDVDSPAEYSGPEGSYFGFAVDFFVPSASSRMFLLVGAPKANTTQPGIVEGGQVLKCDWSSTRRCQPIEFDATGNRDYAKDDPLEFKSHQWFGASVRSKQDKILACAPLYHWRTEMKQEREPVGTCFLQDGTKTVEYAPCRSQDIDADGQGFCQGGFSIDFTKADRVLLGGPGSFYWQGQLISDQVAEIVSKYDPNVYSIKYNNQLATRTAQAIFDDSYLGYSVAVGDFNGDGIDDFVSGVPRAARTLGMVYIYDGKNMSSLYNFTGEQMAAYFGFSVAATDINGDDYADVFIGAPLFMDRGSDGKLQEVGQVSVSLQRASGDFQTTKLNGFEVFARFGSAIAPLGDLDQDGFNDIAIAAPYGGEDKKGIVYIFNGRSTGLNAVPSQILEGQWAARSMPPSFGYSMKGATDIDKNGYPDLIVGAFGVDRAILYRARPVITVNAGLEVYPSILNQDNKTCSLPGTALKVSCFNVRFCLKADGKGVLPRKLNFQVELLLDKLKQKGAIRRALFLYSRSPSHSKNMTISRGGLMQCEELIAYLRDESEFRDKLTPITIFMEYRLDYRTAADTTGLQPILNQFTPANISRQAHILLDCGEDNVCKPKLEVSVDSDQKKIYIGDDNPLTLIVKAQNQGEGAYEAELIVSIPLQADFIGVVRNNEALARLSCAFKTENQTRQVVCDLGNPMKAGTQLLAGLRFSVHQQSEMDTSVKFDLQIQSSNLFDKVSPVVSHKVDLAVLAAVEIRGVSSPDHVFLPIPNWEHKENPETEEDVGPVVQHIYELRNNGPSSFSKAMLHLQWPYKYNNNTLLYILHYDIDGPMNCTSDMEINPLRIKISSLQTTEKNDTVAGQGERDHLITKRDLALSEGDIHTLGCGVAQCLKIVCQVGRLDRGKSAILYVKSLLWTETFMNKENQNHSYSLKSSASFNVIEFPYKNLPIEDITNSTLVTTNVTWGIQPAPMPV
T1 sequence (P05556 21-728 limits assumed): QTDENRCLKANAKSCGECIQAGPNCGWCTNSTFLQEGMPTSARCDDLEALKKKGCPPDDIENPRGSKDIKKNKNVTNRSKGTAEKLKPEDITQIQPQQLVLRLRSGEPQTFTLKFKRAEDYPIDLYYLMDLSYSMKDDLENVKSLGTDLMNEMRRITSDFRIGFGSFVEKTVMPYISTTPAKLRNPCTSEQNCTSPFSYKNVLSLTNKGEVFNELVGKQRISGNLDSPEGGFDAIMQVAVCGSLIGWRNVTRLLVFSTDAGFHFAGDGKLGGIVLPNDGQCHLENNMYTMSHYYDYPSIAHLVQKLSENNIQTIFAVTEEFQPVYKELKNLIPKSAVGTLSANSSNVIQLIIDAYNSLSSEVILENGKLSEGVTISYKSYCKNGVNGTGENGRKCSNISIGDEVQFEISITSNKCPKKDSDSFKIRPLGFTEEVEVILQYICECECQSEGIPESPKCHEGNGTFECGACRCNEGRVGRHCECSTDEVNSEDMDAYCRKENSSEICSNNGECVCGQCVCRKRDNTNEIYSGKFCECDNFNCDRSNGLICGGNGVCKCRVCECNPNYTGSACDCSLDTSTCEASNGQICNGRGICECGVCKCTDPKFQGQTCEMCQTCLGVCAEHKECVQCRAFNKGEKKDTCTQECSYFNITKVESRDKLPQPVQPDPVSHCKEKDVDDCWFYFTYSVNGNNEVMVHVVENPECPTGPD

[2] = molecular target: T2, Recombinant human integrin ανβ8 (Homo sapiens, UniProt P06756+P26012); test: Solid Phase Receptor Assay (SPRA) for ανβ8 function; details: for IC50: plate-bound human LAP, read-out: αvβ8 SPRA IC50
T2 construct: purchased R&D Systems 4135-AV
T2 sequence (P06756 31-992 limits assumed): as the sequence (P06756 31-992 limits assumed) above
T2 sequence (P26012 43-684 limits assumed): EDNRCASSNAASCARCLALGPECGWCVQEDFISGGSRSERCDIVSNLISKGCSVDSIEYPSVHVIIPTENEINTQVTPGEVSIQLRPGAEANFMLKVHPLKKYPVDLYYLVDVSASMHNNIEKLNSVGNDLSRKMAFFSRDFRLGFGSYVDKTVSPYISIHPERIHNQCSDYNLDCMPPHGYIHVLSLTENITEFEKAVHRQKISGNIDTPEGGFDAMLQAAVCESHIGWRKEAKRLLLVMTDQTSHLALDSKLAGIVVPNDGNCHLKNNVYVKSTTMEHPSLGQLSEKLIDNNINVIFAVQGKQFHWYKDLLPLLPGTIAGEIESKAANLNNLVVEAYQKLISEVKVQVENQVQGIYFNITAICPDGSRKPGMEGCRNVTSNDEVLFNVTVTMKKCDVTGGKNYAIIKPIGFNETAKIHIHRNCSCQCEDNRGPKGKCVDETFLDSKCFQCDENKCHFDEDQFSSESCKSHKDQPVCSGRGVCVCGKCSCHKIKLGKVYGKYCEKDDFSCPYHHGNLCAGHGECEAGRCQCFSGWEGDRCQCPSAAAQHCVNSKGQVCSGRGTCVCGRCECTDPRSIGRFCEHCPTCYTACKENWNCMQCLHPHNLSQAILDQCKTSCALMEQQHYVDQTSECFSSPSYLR

[3] = molecular target: T3, Recombinant human integrin ανβ3 (Homo sapiens, UniProt P05106+P06756); test: Solid Phase Receptor Assay (SPRA) for ανβ3 function; details: for IC50: plate-bound human vitronectin, read-out: αvβ3 SPRA IC50
T3 construct: purchased R&D Systems 3050-AV
T3 sequence (P06756 31-992 limits assumed): as the sequence (P06756 31-992 limits assumed) above
T3 sequence (P05106 27-718 limits assumed): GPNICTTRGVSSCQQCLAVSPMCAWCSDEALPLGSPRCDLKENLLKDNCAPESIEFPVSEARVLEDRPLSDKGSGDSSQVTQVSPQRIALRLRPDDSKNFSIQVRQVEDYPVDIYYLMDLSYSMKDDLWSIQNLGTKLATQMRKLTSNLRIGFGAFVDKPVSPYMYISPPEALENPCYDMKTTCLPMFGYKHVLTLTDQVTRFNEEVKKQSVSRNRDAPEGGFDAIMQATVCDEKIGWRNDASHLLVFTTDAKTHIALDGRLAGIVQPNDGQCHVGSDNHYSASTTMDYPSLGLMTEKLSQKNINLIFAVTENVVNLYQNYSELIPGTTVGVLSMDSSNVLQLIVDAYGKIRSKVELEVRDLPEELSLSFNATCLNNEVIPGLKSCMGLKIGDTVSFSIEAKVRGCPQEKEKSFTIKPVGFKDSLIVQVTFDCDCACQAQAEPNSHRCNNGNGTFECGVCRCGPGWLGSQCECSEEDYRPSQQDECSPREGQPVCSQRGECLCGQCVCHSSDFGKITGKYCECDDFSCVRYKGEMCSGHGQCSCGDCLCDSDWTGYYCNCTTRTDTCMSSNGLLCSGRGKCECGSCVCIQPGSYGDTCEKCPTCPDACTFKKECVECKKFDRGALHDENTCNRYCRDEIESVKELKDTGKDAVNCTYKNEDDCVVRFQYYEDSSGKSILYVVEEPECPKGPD

[4] = molecular target: T4, Recombinant human integrin ανβ6 (Homo sapiens, UniProt P06756+P18564); test: Solid Phase Receptor Assay (SPRA) for ανβ6 function; details: for IC50: plate-bound human LAP, read-out: αvβ6 SPRA IC50
T4 construct: purchased R&D Systems 3817-AV
T4 sequence (P06756 31-992 limits assumed): as the sequence (P06756 31-992 limits assumed) above
T4 sequence (P18564 22-707 limits assumed): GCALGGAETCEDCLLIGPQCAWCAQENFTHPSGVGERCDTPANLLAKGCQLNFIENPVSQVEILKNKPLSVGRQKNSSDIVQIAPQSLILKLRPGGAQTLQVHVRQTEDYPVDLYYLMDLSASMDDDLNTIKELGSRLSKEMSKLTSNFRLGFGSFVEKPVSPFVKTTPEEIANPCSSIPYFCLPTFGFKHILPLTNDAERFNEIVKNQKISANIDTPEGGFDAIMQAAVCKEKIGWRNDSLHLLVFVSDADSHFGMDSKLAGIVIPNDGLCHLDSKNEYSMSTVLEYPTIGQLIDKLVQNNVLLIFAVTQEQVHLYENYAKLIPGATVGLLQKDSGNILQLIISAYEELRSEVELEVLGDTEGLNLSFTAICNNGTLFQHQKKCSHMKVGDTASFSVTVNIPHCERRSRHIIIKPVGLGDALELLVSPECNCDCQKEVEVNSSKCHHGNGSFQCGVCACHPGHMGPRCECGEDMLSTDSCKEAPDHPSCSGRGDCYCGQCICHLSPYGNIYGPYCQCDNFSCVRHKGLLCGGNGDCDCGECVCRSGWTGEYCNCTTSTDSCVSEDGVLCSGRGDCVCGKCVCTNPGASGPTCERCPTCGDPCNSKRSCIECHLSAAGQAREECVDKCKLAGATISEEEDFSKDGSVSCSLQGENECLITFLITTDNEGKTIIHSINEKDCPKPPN

## COCC1(c2cc(C(CC(=O)O)Cc3cc(OCCc4ccc5c(n4)NCCC5)n(C)n3)cc(C(F)(F)F)c2)CCOCC1 (stereo not drawn) [Example 31, 3-(3-(4-(methoxymethyl)tetrahydro-2H-pyran-4-yl)-5-(trifluoromethyl)phenyl)-4-(1-methyl-5-(2-(5,6,7,8-tetrahydro-1,8-naphthyridin-2-yl)ethoxy)-1H-pyrazol-3-yl)butanoic Acid]
[1]
  IC50: 1.4 nM
[2]
  IC50: 9.9 nM
[3]
  IC50: 6.5 nM
[4]
  IC50: 63 nM

## COc1ccc(C(C)(C)C)cc1C(CC(=O)O)Cc1cc(OCCc2ccc3c(n2)NCCC3)n(C)n1 (stereo not drawn) [Example 32, 3-(5-(tert-butyl)-2-methoxyphenyl)-4-(1-methyl-5-(2-(5,6,7,8-tetrahydro-1,8-naphthyridin-2-yl)ethoxy)-1H-pyrazol-3-yl)butanoic Acid]
[1]
  inhibitory activity at ανβ1 (in words): high inhibitory activity
  IC50: 0.9 nM
[2]
  inhibitory activity at ανβ8 (in words): low activity
  IC50: 87 nM
[3]
  inhibitory activity at ανβ3 (in words): low activity
  IC50: 380 nM
[4]
  inhibitory activity at ανβ6 (in words): low activity
  IC50: 230 nM

## COc1c(C(CC(=O)O)Cc2cc(OCCc3ccc4c(n3)NCCC4)n(C)n2)cccc1C(C)(C)C (stereo not drawn) [Example 33, 3-(3-(tert-butyl)-2-methoxyphenyl)-4-(1-methyl-5-(2-(5,6,7,8-tetrahydro-1,8-naphthyridin-2-yl)ethoxy)-1H-pyrazol-3-yl)butanoic Acid]
[1]
  IC50: 2400 nM
[2]
  IC50: 970 nM
[3]
  IC50: 150 nM
[4]
  IC50: 2400 nM

## COc1cc(C(C)(C)C)ccc1C(CC(=O)O)Cc1cc(OCCc2ccc3c(n2)NCCC3)n(C)n1 (stereo not drawn) [Example 34, 3-(4-(tert-butyl)-2-methoxyphenyl)-4-(1-methyl-5-(2-(5,6,7,8-tetrahydro-1,8-naphthyridin-2-yl)ethoxy)-1H-pyrazol-3-yl)butanoic Acid]
[1]
  IC50: 47 nM
[2]
  IC50: 42 nM
[3]
  IC50: 4.6 nM
[4]
  IC50: 130 nM

## Cn1nc(CC(CC(=O)O)c2cc(OC(F)(F)F)cc(C(C)(C)C)c2)cc1OCCc1ccc2c(n1)NCCC2 (stereo not drawn) [Example 36, 3-[3-tert-butyl-5-(trifluoromethoxy)phenyl]-4-[1-methyl-5-[2-(5,6,7,8-tetrahydro-1,8-naphthyridin-2-yl)ethoxy]pyrazol-3-yl]butanoic Acid]
[1]
  IC50: 6.5 nM
[2]
  IC50: 40 nM
[3]
  IC50: 10 nM
[4]
  IC50: 120 nM

## Cn1nc(CC(CC(=O)O)c2cc(C(C)(C)C)cc(C(F)(F)F)c2)cc1OCCc1ccc2c(n1)NCCC2 (stereo not drawn) [Example 37, 3-[3-tert-butyl-5-(trifluoromethyl)phenyl]-4-[1-methyl-5-[2-(5,6,7,8-tetrahydro-1,8-naphthyridin-2-yl)ethoxyl]pyrazol-3-yl]butanoic Acid]
[1]
  IC50: 7.5 nM
[2]
  IC50: 18 nM
[3]
  IC50: 7.3 nM
[4]
  IC50: 140 nM

## Cn1nc(CC(CC(=O)O)c2cc(F)cc(C(C)(C)C)c2)cc1OCCc1ccc2c(n1)NCCC2 (stereo not drawn) [Example 38, 3-(3-(tert-butyl)-5-fluorophenyl)-4-(1-methyl-5-(2-(5,6,7,8-tetrahydro-1,8-naphthyridin-2-yl)ethoxy)-1H-pyrazol-3-yl)butanoic Acid]
[1]
  IC50: 4.5 nM
[2]
  IC50: 140 nM
[3]
  IC50: 7.9 nM
[4]
  IC50: 110 nM

## COc1ccc(C(C)C)cc1C(CC(=O)O)Cc1cc(OCCc2ccc3c(n2)NCCC3)n(C)n1 (stereo not drawn) [Example 39, 3-(5-isopropyl-2-methoxyphenyl)-4-(1-methyl-5-(2-(5,6,7,8-tetrahydro-1,8-naphthyridin-2-yl)ethoxy)-1H-pyrazol-3-yl)butanoic Acid Trifluoroacetate]
[1]
  IC50: 3.2 nM
[2]
  IC50: 110 nM
[3]
  IC50: 290 nM
[4]
  IC50: 230 nM

## CC(C)c1cc(Br)cc(C(CC(=O)O)Cc2cc(OCCc3ccc4c(n3)NCCC4)n(C)n2)c1 (stereo not drawn) [Example 40, 3-(3-bromo-5-isopropyl-phenyl)-4-[1-methyl-5-[2-(5,6,7,8-tetrahydro-1,8-naphthyridin-2-yl)ethoxyl]pyrazol-3-yl]butanoic acid trifluoroacetate]
[1]
  IC50: 6.3 nM
[2]
  IC50: 9 nM
[3]
  IC50: 7.2 nM
[4]
  IC50: 79 nM

## CC(C)(C)c1cc(Br)cc(C(CC(=O)O)Cc2cc(OCCc3ccc4c(n3)NCCC4)n(CC(F)(F)F)n2)c1 (stereo not drawn) [Example 41, 3-(3-bromo-5-tert-butyl-phenyl)-4-[5-[2-(5,6,7,8-tetrahydro-1,8-naphthyridin-2-yl)ethoxy]-1-(2,2,2-trifluoroethyl)pyrazol-3-yl]butanoic Acid Trifluoroacetate]
[1]
  IC50: 4.5 nM
[2]
  IC50: 6.9 nM
[3]
  IC50: 9 nM
[4]
  IC50: 85 nM

## Cn1nc(CC(CC(=O)O)c2cc(C(C)(C)C)ccc2O)cc1OCCc1ccc2c(n1)NCCC2 (stereo not drawn) [Example 42, 3-(5-tert-butyl-2-hydroxy-phenyl)-4-[1-methyl-5-[2-(5,6,7,8-tetrahydro-1,8-naphthyridin-2-yl)ethoxyl]pyrazol-3-yl]butanoic Acid Sodium Salt]
[1]
  IC50: 2.4 nM
[2]
  IC50: 3.1 nM
[3]
  IC50: 18 nM
[4]
  IC50: 20 nM

## Cn1nc(CC(CC(=O)O)c2cc(C(C)(C)C)ccc2Cl)cc1OCCc1ccc2c(n1)NCCC2 (stereo not drawn) [Example 43, 3-(5-(tert-butyl)-2-chlorophenyl)-4-(1-methyl-5-(2-(5,6,7,8-tetrahydro-1,8-naphthyridin-2-yl)ethoxy)-1H-pyrazol-3-yl)butanoic Acid Trifluoroacetate]
[1]
  IC50: 7.3 nM
[2]
  IC50: 88 nM
[3]
  IC50: 94.4 nM
[4]
  IC50: 800 nM

## Cc1ccc(C(C)(C)C)cc1C(CC(=O)O)Cc1cc(OCCc2ccc3c(n2)NCCC3)n(C)n1 (stereo not drawn) [Example 44, 3-(5-tert-butyl-2-methyl-phenyl)-4-[1-methyl-5-[2-(5,6,7,8-tetrahydro-1,8-naphthyridin-2-yl)ethoxy]pyrazol-3-yl]butanoic Acid Trifluoroacetate]
[1]
  IC50: 14 nM
[2]
  IC50: 360 nM
[3]
  IC50: 270 nM
[4]
  IC50: 7100 nM

## COc1ccc(C#N)cc1C(CC(=O)O)Cc1cc(OCCc2ccc3c(n2)NCCC3)n(C)n1 (stereo not drawn) [Example 46, 3-(5-cyano-2-methoxyphenyl)-4-(1-methyl-5-(2-(5,6,7,8-tetrahydro-1,8-naphthyridin-2-yl)ethoxy)-1H-pyrazol-3-yl)butanoic Acid Trifluoroacetate]
[1]
  IC50: 8.1 nM
[2]
  IC50: 31 nM
[3]
  IC50: 9.9 nM
[4]
  IC50: 30 nM

## COc1ccc(C(N)=O)cc1C(CC(=O)O)Cc1cc(OCCc2ccc3c(n2)NCCC3)n(C)n1 (stereo not drawn) [Example 47, 3-(5-carbamoyl-2-methoxyphenyl)-4-(1-methyl-5-(2-(5,6,7,8-tetrahydro-1,8-naphthyridin-2-yl)ethoxy)-1H-pyrazol-3-yl)butanoic Acid trifluoroacetate]
[1]
  IC50: 4.9 nM
[2]
  IC50: 3.6 nM
[3]
  IC50: 4.9 nM
[4]
  IC50: 77 nM

## COc1ccc(C(=O)O)cc1C(CC(=O)O)Cc1cc(OCCc2ccc3c(n2)NCCC3)n(C)n1 (stereo not drawn) [Example 48, 3-(1-carboxy-3-(1-methyl-5-(2-(5,6,7,8-tetrahydro-1,8-naphthyridin-2-yl)ethoxy)-1H-pyrazol-3-yl)propan-2-yl)-4-methoxybenzoic Acid Trifluoroacetate]
[1]
  IC50: 19 nM
[2]
  IC50: 92 nM
[3]
  IC50: 5 nM
[4]
  IC50: 680 nM

## Cn1nc(CC(CC(=O)O)c2cccc(C(C)(C)C)c2)cc1OCCc1ccc2c(n1)NCCC2 (stereo not drawn) [Example 49, 3-(3-tert-butylphenyl)-4-[1-methyl-5-[2-(5,6,7,8-tetrahydro-1,8-naphthyridin-2-yl)ethoxy]pyrazol-3-yl]butanoic Acid Trifluoroacetate]
[1]
  IC50: 4.4 nM
[2]
  IC50: 73 nM
[3]
  IC50: 7 nM
[4]
  IC50: 94 nM
